A value given as a limit tells only on which side of the number the result lay.

What is called AC50 is the midpoint of the concentration-response curve, whichever way the signal moves. High values mean activity only at high concentration, low ones activity at low concentration.

For test [1], the target named is Prostaglandin G/H synthase 1 (Homo sapiens, UniProt P23219). Type of test: functional.
For test [2], the target named is Sodium-dependent dopamine transporter (Homo sapiens, UniProt Q01959).
Sequence of Sodium-dependent dopamine transporter (Q01959 whole entry): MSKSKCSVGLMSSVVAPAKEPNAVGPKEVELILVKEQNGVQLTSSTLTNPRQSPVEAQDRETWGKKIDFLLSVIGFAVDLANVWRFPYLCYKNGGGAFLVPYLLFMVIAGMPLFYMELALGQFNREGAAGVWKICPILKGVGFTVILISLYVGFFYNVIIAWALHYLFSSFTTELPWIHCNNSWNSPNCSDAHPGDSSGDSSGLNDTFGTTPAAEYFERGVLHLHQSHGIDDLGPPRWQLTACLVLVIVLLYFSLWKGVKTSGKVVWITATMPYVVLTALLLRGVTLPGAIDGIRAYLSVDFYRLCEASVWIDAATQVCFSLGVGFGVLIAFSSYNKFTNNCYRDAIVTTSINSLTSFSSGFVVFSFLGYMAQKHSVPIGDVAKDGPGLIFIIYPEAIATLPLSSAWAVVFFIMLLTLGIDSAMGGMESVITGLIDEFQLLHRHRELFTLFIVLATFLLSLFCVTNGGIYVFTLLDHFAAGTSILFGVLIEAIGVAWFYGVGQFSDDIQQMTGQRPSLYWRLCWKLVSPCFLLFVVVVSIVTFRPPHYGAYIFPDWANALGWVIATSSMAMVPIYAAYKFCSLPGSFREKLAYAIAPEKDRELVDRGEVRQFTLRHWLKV
Test [3] concerns the target T1, Alpha-1A adrenergic receptor (Homo sapiens, UniProt P35348).
T1 sequence (P35348 whole entry): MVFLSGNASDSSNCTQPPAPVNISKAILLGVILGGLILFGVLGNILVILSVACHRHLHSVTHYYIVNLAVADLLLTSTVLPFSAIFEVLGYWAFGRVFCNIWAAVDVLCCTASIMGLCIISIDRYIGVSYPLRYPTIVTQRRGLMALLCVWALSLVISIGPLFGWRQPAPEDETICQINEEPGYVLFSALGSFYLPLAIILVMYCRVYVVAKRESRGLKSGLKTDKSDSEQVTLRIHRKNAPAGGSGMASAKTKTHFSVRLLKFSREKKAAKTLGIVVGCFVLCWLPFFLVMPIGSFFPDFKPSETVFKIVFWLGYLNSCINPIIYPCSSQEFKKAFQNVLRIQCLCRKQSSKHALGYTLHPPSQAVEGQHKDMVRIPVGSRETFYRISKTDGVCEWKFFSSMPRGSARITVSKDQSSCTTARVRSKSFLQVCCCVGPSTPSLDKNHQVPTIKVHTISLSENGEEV
Type of test: functional, cell-based.

Test [4] addresses T2, Amine oxidase [flavin-containing] A (Homo sapiens, UniProt P21397).
T2 sequence (P21397 whole entry): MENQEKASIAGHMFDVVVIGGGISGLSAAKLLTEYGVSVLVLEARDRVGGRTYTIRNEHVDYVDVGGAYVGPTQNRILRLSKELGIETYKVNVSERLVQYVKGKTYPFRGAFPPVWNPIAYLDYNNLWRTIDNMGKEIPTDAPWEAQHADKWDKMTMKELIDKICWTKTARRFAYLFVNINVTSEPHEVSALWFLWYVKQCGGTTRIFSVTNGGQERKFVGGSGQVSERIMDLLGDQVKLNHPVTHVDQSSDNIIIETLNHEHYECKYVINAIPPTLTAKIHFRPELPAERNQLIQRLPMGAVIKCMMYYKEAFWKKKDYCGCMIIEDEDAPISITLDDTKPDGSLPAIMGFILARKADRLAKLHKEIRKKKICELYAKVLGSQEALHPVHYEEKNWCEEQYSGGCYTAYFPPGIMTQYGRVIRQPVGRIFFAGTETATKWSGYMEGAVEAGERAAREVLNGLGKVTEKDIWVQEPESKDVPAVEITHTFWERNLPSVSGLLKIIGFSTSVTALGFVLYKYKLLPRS
Type of test: functional.

Test [5] deals with cGMP-inhibited 3',5'-cyclic phosphodiesterase 3A (Homo sapiens, UniProt Q14432). Type of test: functional.
Sequence of cGMP-inhibited 3',5'-cyclic phosphodiesterase 3A (Q14432 whole entry): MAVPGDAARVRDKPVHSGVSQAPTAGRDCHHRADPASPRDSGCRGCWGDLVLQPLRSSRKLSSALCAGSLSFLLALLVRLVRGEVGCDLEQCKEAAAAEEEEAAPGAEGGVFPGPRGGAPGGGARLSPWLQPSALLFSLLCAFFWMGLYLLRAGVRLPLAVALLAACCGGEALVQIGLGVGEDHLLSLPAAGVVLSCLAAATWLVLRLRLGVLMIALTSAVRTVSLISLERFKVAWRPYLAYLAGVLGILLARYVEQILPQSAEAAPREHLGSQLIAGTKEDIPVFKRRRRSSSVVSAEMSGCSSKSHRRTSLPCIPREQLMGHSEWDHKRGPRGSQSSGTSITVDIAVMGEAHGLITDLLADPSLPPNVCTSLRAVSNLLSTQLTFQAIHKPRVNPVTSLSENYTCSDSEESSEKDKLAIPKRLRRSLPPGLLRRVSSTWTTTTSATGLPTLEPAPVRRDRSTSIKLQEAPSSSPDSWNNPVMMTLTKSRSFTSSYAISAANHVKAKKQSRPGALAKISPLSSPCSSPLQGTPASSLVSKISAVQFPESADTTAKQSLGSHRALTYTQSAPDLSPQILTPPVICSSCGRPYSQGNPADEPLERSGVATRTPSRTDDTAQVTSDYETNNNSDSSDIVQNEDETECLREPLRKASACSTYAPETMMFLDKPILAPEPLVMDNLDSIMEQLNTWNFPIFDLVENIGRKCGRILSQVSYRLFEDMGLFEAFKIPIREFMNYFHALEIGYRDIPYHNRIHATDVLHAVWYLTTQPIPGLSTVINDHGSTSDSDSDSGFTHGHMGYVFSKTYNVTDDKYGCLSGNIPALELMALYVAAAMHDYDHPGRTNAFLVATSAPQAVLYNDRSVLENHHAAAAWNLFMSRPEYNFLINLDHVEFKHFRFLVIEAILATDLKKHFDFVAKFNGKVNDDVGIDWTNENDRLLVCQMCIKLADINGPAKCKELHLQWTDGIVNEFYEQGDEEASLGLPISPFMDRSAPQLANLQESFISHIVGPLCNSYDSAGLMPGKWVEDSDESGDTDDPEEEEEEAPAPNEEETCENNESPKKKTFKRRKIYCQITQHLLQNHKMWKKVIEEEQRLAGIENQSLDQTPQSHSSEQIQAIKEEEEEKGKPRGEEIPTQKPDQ
The target in a further test is Histamine H3 receptor (Homo sapiens, UniProt Q9Y5N1).
Sequence of Histamine H3 receptor (Q9Y5N1 whole entry): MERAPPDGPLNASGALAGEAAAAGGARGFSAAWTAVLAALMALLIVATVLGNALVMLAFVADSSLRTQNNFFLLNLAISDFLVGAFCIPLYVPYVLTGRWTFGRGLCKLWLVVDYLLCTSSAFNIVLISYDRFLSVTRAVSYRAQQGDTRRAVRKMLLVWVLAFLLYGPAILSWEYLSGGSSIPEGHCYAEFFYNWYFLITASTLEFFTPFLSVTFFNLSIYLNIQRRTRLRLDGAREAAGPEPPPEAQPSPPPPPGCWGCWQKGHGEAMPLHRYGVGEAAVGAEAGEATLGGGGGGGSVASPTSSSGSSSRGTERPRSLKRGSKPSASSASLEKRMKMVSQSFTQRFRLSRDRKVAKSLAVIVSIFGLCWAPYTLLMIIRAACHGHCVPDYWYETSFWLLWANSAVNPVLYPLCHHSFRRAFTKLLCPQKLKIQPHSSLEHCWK
Another test has as its target T3, Estrogen receptor (Homo sapiens, UniProt P03372).
T3 sequence (P03372 whole entry): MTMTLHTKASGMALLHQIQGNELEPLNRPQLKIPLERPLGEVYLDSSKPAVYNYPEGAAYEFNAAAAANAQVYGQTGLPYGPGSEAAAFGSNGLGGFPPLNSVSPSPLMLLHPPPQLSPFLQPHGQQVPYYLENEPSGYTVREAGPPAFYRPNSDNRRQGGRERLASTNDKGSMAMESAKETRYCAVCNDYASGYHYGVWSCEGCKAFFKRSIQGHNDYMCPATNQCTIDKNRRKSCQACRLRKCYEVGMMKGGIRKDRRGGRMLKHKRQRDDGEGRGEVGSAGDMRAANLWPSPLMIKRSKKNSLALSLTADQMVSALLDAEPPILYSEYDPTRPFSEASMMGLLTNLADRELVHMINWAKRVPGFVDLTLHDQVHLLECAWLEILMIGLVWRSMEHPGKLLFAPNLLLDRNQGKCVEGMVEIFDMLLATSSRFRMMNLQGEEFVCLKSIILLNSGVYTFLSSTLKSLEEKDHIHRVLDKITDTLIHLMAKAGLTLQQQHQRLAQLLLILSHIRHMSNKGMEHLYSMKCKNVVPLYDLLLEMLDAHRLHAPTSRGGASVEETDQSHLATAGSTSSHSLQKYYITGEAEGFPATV

Another test concerns the target T4, Progesterone receptor (Homo sapiens, UniProt P06401).
T4 sequence (P06401 whole entry): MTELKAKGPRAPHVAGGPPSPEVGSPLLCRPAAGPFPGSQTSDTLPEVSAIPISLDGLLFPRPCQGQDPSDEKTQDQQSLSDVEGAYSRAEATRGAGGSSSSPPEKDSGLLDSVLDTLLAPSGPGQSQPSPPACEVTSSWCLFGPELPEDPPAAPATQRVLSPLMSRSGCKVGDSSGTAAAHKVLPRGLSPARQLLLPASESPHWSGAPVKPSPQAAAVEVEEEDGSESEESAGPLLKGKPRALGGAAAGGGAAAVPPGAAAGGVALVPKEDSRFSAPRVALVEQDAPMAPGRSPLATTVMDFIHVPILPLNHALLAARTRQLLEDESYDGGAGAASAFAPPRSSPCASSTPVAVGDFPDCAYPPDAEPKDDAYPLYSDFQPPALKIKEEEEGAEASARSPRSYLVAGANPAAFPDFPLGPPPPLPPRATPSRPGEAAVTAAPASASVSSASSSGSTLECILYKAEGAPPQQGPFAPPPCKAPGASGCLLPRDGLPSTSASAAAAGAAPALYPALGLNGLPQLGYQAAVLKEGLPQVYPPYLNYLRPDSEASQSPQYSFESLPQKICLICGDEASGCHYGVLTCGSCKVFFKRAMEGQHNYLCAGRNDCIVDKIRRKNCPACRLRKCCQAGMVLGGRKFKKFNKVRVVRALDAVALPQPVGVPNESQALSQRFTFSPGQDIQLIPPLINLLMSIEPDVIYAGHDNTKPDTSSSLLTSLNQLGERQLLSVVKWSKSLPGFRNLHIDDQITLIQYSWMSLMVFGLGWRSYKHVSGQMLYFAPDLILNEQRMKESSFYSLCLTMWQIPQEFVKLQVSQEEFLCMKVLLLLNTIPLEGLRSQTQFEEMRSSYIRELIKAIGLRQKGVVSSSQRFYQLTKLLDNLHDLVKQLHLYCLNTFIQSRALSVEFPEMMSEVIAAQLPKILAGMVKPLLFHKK
Type of test: functional.
Note: assay procedure not described here.

Sequence of Prostaglandin G/H synthase 1 (P23219 whole entry): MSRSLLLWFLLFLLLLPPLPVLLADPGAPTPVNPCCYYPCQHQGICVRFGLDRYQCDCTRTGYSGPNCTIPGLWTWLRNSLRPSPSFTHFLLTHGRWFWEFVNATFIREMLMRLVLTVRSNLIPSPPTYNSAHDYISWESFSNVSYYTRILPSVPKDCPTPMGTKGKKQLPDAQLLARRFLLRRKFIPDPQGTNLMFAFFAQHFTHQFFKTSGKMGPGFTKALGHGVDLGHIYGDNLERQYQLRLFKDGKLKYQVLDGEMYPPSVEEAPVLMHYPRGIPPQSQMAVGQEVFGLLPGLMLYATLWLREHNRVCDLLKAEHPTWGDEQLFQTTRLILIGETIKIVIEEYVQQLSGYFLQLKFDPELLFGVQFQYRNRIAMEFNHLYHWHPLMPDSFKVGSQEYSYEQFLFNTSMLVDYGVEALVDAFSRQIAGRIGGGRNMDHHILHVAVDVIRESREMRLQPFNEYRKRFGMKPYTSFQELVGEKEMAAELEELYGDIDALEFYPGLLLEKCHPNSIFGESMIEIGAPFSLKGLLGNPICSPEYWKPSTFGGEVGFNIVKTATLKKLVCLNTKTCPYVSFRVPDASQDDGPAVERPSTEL

`CC(C)N(CCNC(=O)CN1CCCC1=O)C(C)C`: the AC50 in test [1], in test [2], in test [3], in test [4] and in test [5] was > 30 µM throughout.

For the compound `CCOC(=O)[C@H](CCc1ccccc1)N[C@@H](C)C(=O)N(CC(=O)O)C1Cc2ccccc2C1`, the AC50 in test [1], in test [2], in test [3], in test [4] and in test [5] was > 30 µM throughout.

In the case of `CC(=O)N[C@@H](CS)C(=O)O` [ACETYLCYSTEINE], the AC50 at Histamine H3 receptor, at Estrogen receptor and at Progesterone receptor was > 30 µM in each case.

Consider `C=CCNc1nc(NCC=C)nc(N2CCN(C(c3ccc(F)cc3)c3ccc(F)cc3)CC2)n1` [ALMITRINE], for which the AC50 on Histamine H3 receptor, on Estrogen receptor and on Progesterone receptor was > 30 µM in each case.

`CC(C)COCC(CN(Cc1ccccc1)c1ccccc1)N1CCCC1` (centres undefined) [BEPRIDIL]: the AC50 on Histamine H3 receptor, at Estrogen receptor and at Progesterone receptor was > 30 µM throughout.

With `C/N=C(\NC)NCc1ccccc1` [BETHANIDINE], the AC50 on Histamine H3 receptor, on Estrogen receptor and on Progesterone receptor was > 30 µM each time.

Consider `CCC(C)C1(CC)C(=O)NC(=O)NC1=O` (centres undefined) [BUTABARBITAL], for which the AC50 on Histamine H3 receptor, at Estrogen receptor and on Progesterone receptor was > 30 µM each time.

Take `COCC1=C(C(=O)O)N2C(=O)[C@@H](NC(=O)/C(=N\OC)c3csc(N)n3)[C@H]2SC1` [CEFPODOXIME]: the AC50 on Histamine H3 receptor, at Estrogen receptor and at Progesterone receptor was > 30 µM in each case.

Consider `O=C(O)c1cn(C2CC2)c2cc(N3CCNCC3)c(F)cc2c1=O` [CIPROFLOXACIN], for which the AC50 (on Estrogen receptor; in test [5]) was > 30 µM in each case.

With `COc1cc(N)c(Cl)cc1C(=O)NC1CCN(Cc2ccccc2)CC1` [CLEBOPRIDE], the AC50 on Histamine H3 receptor, at Estrogen receptor and on Progesterone receptor was > 30 µM in each case.

On to `Cc1ccccc1N1CCN(CCc2nnc3n2CCCC3)CC1` [DAPIPRAZOLE], for which the AC50 in test [1], in test [2], in test [4] and in test [5] was > 30 µM each time.

As to `Nc1ncn([C@H]2C[C@H](O)[C@@H](CO)O2)c(=O)n1` [DECITABINE], the AC50 on Histamine H3 receptor and at Progesterone receptor was > 30 µM in each case.

For the compound `C=C1CC[C@H](O)C/C1=C/C=C1\CCC[C@]2(C)[C@@H]([C@H](C)/C=C/[C@H](C)C(C)C)CC[C@@H]12` [ERGOCALCIFEROL], the AC50 in test [1] was 20.3 µM; in test [2], > 30 µM; in test [4] it was > 30 µM; in test [5], > 30 µM.

`C[C@]12CCC(=O)C(O)=C1CC[C@@H]1[C@@H]2CC[C@]2(C)C(=O)CC[C@@H]12` [FORMESTANE]: the AC50 on Histamine H3 receptor and on Estrogen receptor was > 30 µM throughout.

`C[C@]12CC[C@@H]3c4ccc(O)cc4C[C@@H](CCCCCCCCC[S+]([O-])CCCC(F)(F)C(F)(F)F)[C@H]3[C@@H]1CC[C@@H]2O` (some centres undefined) [FULVESTRANT]: the AC50 on Histamine H3 receptor was > 30 µM; at Progesterone receptor it was 3.6 µM.

For the compound `Cc1cnc(C(=O)NCCc2ccc(S(=O)(=O)NC(=O)NC3CCCCC3)cc2)cn1` [GLIPIZIDE], the AC50 on Histamine H3 receptor is > 10 µM; in test [3], 14 µM; at Estrogen receptor, > 30 µM; in test [4], > 30 µM; in test [5], > 30 µM.

Consider `Oc1ccc2c(c1)CC[C@H](c1ccccc1)[C@@H]2c1ccc(OCCN2CCCC2)cc1` [LASOFOXIFENE], for which the AC50 on Histamine H3 receptor is 0.99 µM; at Progesterone receptor it was > 10 µM.

With `CC(C(=O)O)c1ccc(CC2CCCC2=O)cc1` (centres undefined) [LOXOPROFEN], the AC50 on Histamine H3 receptor and at Estrogen receptor was > 30 µM throughout.

On to `CN(C)CCCNc1c2ccccc2nc2cccc([N+](=O)[O-])c12` [NITRACRINE], for which the AC50 at Histamine H3 receptor is > 10 µM; on Estrogen receptor it was > 30 µM; on Progesterone receptor, > 30 µM.

Take `O=[N+]([O-])c1ccc(O)c2ncccc12` [NITROXOLINE]: the AC50 in test [1], in test [2], in test [4] and in test [5] was > 30 µM in each case.

Consider `C#C[C@]1(OC(C)=O)CC[C@H]2[C@@H]3CCC4=C/C(=N/O)CC[C@@H]4[C@H]3CC[C@@]21CC` [NORGESTIMATE], for which the AC50 at Histamine H3 receptor and on Estrogen receptor was > 30 µM each time.

For the compound `Clc1ccc2c(N3CCN(CCCN4CCN(c5ccnc6cc(Cl)ccc56)CC4)CC3)ccnc2c1` [PIPERAQUINE], the values for the AC50 at Histamine H3 receptor, on Estrogen receptor and at Progesterone receptor were 6.1 µM, > 30 µM and > 30 µM, respectively.

On to `CC1(C)S[C@@H]2[C@H](NC(=O)[C@H](N)c3ccccc3)C(=O)N2[C@H]1C(=O)OCOC(=O)[C@@H]1N2C(=O)C[C@H]2S(=O)(=O)C1(C)C` [SULTAMICILLIN], for which the AC50 at Histamine H3 receptor, at Estrogen receptor and at Progesterone receptor was > 30 µM each time.

Consider `Clc1ccc(C(Cn2ccnc2)OCc2ccsc2Cl)c(Cl)c1` (centres undefined) [TIOCONAZOLE], for which the AC50 at Histamine H3 receptor was > 30 µM; at Estrogen receptor it was > 10 µM; on Progesterone receptor, 10.3 µM.

Take `Cc1cccc(N2CC(CO)OC2=O)c1` (centres undefined) [TOLOXATONE]: the AC50 at Histamine H3 receptor and on Progesterone receptor was > 30 µM in each case.

As for `CC(C)[C@H](N)C(=O)OCC(CO)OCn1cnc2c(=O)nc(N)[nH]c21` (some centres undefined) [VALGANCICLOVIR], the AC50 at Histamine H3 receptor, at Estrogen receptor and at Progesterone receptor was > 30 µM throughout.

Take `CCC(C)C(CC)C(N)=O` (centres undefined) [VALNOCTAMIDE]: the half-maximal activity concentration (AC50) at Histamine H3 receptor, on Estrogen receptor and on Progesterone receptor was > 30 µM throughout.

As to `CCOC(=O)C1=C[C@]2(CC)CCCN3CCc4c(n1c1ccccc41)[C@@H]32` [VINPOCETINE], the values for the AC50 at Histamine H3 receptor and on Progesterone receptor were 18 µM and > 30 µM, respectively.
